These results are taken from patent US9365575B2, “Kinase inhibitors” (Allergan, Inc., priority 2012, dated 2016).

The assay deals with VEGFR2 (Homo sapiens (Human), UniProt P35968). In words: VEGFR2 Kinase Assay (biochemical KDR kinase assay, poly-Glu-Tyr ELISA). The note with it: for pIC50: purified cytoplasmic domain KDR protein, 2.7 μM ATP, 15 minute incubation at 30° C., read-out: VEGFR2 Enzyme IC50; for VEGFR2 potency as shown in this assay (in words): statement in words on the Table 2 data. As for the experimental part:
Biochemical KDR kinase assays were performed in 96 well microtiter plates that were coated overnight with 75 μg/well of poly-Glu-Tyr (4:1) in 10 mM Phosphate Buffered Saline (PBS), pH 7.4. The coated plates were washed with 2 mLs per well PBS+0.05% Tween-20 (PBS-T), blocked by incubation with PBS containing 1% BSA, then washed with 2 mLs per well PBS-T prior to starting the reaction. Reactions were carried out in 100 μL reaction volumes containing 2.7 μM ATP in kinase buffer (50 mM Hepes buffer pH 7.4, 20 mM MgCl2, 0.1 mM MnCl2 and 0.2 mM Na3VO4). […] Reactions were initiated by the addition 20 ul per well of kinase buffer containing 200-300 ng purified cytoplasmic domain KDR protein (BPS Bioscience, San Diego, Calif.). Following a 15 minute incubation at 30° C., the reactions were washed 2 mLs per well PBS-T. 100 μl of a monoclonal anti-phosphotyrosine antibody-peroxidase conjugate diluted 1:10,000 in PBS-T was added to the wells for 30 minutes. Following a 2 mLs per well wash with PBS-Tween-20, 100 μl of O-Phenylenediamine Dihydrochloride in phosphate-citrate buffer, containing urea hydrogen peroxide, was added to the wells for 7-10 minutes as a colorimetric substrate for the peroxidase. The reaction was terminated by the addition of 100 μl of 2.5N H2SO4 to each well and read using a microplate ELISA reader set at 492 nm. IC50 values for compound inhibition were calculated directly from graphs of optical density (arbitrary units) versus compound concentration following subtraction of blank values.
(In general: ELISA stands for enzyme-linked immunosorbent assay.)

pIC50: −log10 of the molar value.

Sequence of VEGFR2 (P35968 786-1356): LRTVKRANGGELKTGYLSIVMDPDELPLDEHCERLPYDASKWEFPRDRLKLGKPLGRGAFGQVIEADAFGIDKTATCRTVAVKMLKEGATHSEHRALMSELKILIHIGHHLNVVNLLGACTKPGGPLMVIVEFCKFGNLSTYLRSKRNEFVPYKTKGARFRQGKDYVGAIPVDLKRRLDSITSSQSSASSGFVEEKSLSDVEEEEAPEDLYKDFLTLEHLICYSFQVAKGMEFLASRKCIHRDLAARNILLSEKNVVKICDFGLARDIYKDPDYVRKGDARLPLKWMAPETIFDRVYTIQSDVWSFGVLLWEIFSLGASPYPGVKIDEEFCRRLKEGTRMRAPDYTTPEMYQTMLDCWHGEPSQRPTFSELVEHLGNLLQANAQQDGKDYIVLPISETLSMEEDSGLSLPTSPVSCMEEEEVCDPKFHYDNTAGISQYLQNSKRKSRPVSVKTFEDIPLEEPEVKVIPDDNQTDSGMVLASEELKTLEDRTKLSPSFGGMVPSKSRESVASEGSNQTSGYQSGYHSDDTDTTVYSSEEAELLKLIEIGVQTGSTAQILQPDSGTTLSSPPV

What is called pIC50 is the negative decadic logarithm of the IC50, by convention in mol/L. Consider `Cc1cc(NC(=O)Nc2cc(C(F)(F)F)ccc2F)ccc1C1CN=C2c3ccccc3NC(=O)N2C1` (stereo not drawn) [Example 25, 1-[2-fluoro-5-(trifluoromethyl)phenyl]-3-[3-methyl-4-(6-oxo-3,4,6,7-tetrahydro-2H-pyrimido[1,2-c]quinazolin-3-yl)phenyl]urea], for which the pIC50 is 6.41.

On to `CSc1cccc(NC(=O)Nc2ccc(C3CN=C4c5ccccc5NC(=O)N4C3)cc2)c1` (stereo not drawn) [Example 8, 1-[3-(Methylthio)phenyl]-3-[4-(6-oxo-3,4,6,7-tetrahydro-2H-pyrimido[1,2-c]quinazolin-3-yl)phenyl]urea], for which the pIC50 was 5.74.

For the compound `O=C(Nc1ccc(C2CN=C3c4ccccc4NC(=O)N3C2)cc1)Nc1ccc(Cl)c(C(F)(F)F)c1` (stereo not drawn) [Example 7, 1-[4-Chloro-3-(trifluoromethyl)phenyl]-3-[4-(6-oxo-3,4,6,7-tetrahydro-2H-pyrimido[1,2-c]quinazolin-3-yl)phenyl]urea], the pIC50 is 6.47 and the “VEGFR2 potency as shown in this assay (in words)” value (“VEGFR2 potency as shown” for short) is “excellent VEGFR2 potency”.

In the case of `CNc1ccc(C2CN=C3c4ccc(C(=O)OC)cc4NC(=O)N3C2)cc1` (stereo not drawn) [Example 18, Methyl 3-[4-(methylamino)phenyl]-6-oxo-3,4,6,7-tetrahydro-2H-pyrimido[1,2-c]quinazoline-9-carboxylate], the pIC50 is less than 5.00.

With `COC(=O)c1ccc2c(c1)NC(=O)N1CC(c3ccc(N(C)C(=O)CN4CCN(C)CC4)cc3)CN=C21` (stereo not drawn) [Example 19, Methyl 3-(4-{methyl[(4-methylpiperazin-1-yl)acetyl]amino}phenyl)-6-oxo-3,4,6,7-tetrahydro-2H-pyrimido[1,2-c]quinazoline-9-carboxylate], the pIC50 was less than 5.00 and the “VEGFR2 potency as shown” value is recorded as “lack of potency”.

In the case of `Cc1ccoc1C(=O)Nc1ccc(C2CN=C3c4ccccc4NC(=O)N3C2)cc1` (stereo not drawn) [Example 16, 3-Methyl-N-[4-(6-oxo-3,4,6,7-tetrahydro-2H-pyrimido[1,2-c]quinazolin-3-yl)phenyl]-2-furamide], the pIC50 is less than 5.00.

For `Nc1cccc(C2CN=C3c4ccccc4NC(=O)N3C2)c1` (stereo not drawn) [Example 2, 3-(3-Aminophenyl)-2,3,4,7-tetrahydro-6H-pyrimido[1,2-c]quinazolin-6-one], the pIC50 was less than 5.00.

`COc1cccc(NC(=O)Nc2ccc(C3CN=C4c5ccccc5NC(=O)N4C3)cc2)c1` (stereo not drawn) [Example 13, 1-(3-Methoxyphenyl)-3-[4-(6-oxo-3,4,6,7-tetrahydro-2H-pyrimido[1,2-c]quinazolin-3-yl)phenyl]urea]: the pIC50 was 5.83.

Turning to `Cc1cccc(NC(=O)Nc2ccc(C3CN=C4c5ccccc5NC(=O)N4C3)c(C)c2)c1` (stereo not drawn) [Example 24, 1-[3-methyl-4-(6-oxo-3,4,6,7-tetrahydro-2H-pyrimido[1,2-c]quinazolin-3-yl)phenyl]-3-(3-methylphenyl)urea], the pIC50 is 5.82.

Consider `O=C(Nc1ccccc1)Nc1ccc(C2CN=C3c4ccccc4NC(=O)N3C2)cc1` (stereo not drawn) [Example 6, 1-[4-(6-Oxo-3,4,6,7-tetrahydro-2H-pyrimido[1,2-c]quinazolin-3-yl)phenyl]-3-phenylurea], for which the negative logarithm of the IC50 (pIC50) was 5.32.

Regarding `CN1CCN(CC(=O)Nc2ccc(C3CN=C4c5ccccc5NC(=O)N4C3)cc2)CC1` (stereo not drawn) [Example 20, 2-(4-Methylpiperazin-1-yl)-N-[4-(6-oxo-3,4,6,7-tetrahydro-2H-pyrimido[1,2-c]quinazolin-3-yl)phenyl]acetamide], the pIC50 was less than 5.00 and the “VEGFR2 potency as shown” value was “lack of potency”.

Consider `O=C(Nc1ccc(C2CN=C3c4ccccc4NC(=O)N3C2)cc1)Nc1cccc(Br)c1` (stereo not drawn) [Example 9, 1-(3-Bromophenyl)-3-[4-(6-oxo-3,4,6,7-tetrahydro-2H-pyrimido[1,2-c]quinazolin-3-yl)phenyl]urea], for which the pIC50 was 6.60 and the “VEGFR2 potency as shown” value is recorded as “excellent VEGFR2 potency”.

As to `CC(C)NC(=O)Nc1ccc(C2CN=C3c4ccccc4NC(=O)N3C2)cc1` (stereo not drawn) [Example 14, 1-Isopropyl-3-[4-(6-oxo-3,4,6,7-tetrahydro-2H-pyrimido[1,2-c]quinazolin-3-yl)phenyl]urea], the “VEGFR2 potency as shown” value is given as “lack of potency”.

With `Nc1ccc(C2CN=C3c4ccccc4NC(=O)N3C2)cc1` (stereo not drawn) [Example 4, 3-(4-Aminophenyl)-2,3,4,7-tetrahydro-6H-pyrimido[1,2-c]quinazolin-6-one], the pIC50 is less than 5.00.

In the case of `COc1ccc(NC(=O)Nc2ccc(C3CN=C4c5ccccc5NC(=O)N4C3)cc2)cc1` (stereo not drawn) [Example 12, 1-(4-Methoxyphenyl)-3-[4-(6-oxo-3,4,6,7-tetrahydro-2H-pyrimido[1,2-c]quinazolin-3-yl)phenyl]urea], the negative-log IC50 (pIC50) was less than 5.00.

For `O=C(Nc1cccc(C2CN=C3c4ccccc4NC(=O)N3C2)c1)Nc1cc(C(F)(F)F)ccc1F` (stereo not drawn) [Example 3, 1-[2-Fluoro-5-(trifluoromethyl)phenyl]-3-[3-(6-oxo-3,4,6,7-tetrahydro-2H-pyrimido[1,2-c]quinazolin-3-yl)phenyl]urea], the pIC50 is 6.12 and the “VEGFR2 potency as shown” value was “excellent VEGFR2 potency”.

On to `Cc1cc(N)ccc1C1CN=C2c3ccccc3NC(=O)N2C1` (stereo not drawn) [Example 23, 3-(4-amino-2-methylphenyl)-2,3,4,7-tetrahydro-6H-pyrimido[1,2-c]quinazolin-6-one], for which the pIC50 is less than 5.00.

`O=C(Nc1ccc(C2CN=C3c4ccccc4NC(=O)N3C2)cc1)c1cccc(C(F)(F)F)c1` (stereo not drawn) [Example 17, N-[4-(6-oxo-3,4,6,7-tetrahydro-2H-pyrimido[1,2-c]quinazolin-3-yl)phenyl]-3-(trifluoromethyl)benzamide]: the pIC50 was less than 5.00.

For the compound `O=C(Nc1ccc(C2CN=C3c4ccccc4NC(=O)N3C2)cc1)Nc1cc(C(F)(F)F)ccc1F` (stereo not drawn) [Example 5, 1-[2-Fluoro-5-(trifluoromethyl)phenyl]-3-[4-(6-oxo-3,4,6,7-tetrahydro-2H-pyrimido[1,2-c]quinazolin-3-yl)phenyl]urea], the pIC50 is 6.44 and the “VEGFR2 potency as shown” value is “excellent VEGFR2 potency”.

`Cc1cc(C2CN=C3c4ccccc4NC(=O)N3C2)ccc1N` (stereo not drawn) [Example 22, 3-(4-amino-3-methylphenyl)-2,3,4,7-tetrahydro-6H-pyrimido[1,2-c]quinazolin-6-one]: the negative logarithm of the IC50 (pIC50) is less than 5.00.

With `COC(=O)c1ccc2c(c1)NC(=O)N1CC(c3ccc(N(C)C(=O)Nc4cc(C(F)(F)F)ccc4F)cc3)CN=C21` (stereo not drawn) [Example 21, Methyl 3-{4-[({[2-fluoro-5-(trifluoromethyl)phenyl]amino}carbonyl)(methyl)amino]phenyl}-6-oxo-3,4,6,7-tetrahydro-2H-pyrimido[1,2-c]quinazoline-9-carboxylate], the pIC50 is less than 5.00.

Regarding `Cc1ccoc1C(=O)Nc1cccc(C2CN=C3c4ccccc4NC(=O)N3C2)c1` (stereo not drawn) [Example 15, 3-Methyl-N-[3-(6-oxo-3,4,6,7-tetrahydro-2H-pyrimido[1,2-c]quinazolin-3-yl)phenyl]-2-furamide], the pIC50 is 5.20 and the “VEGFR2 potency as shown” value was “excellent VEGFR2 potency”.

Take `Cc1cccc(NC(=O)Nc2ccc(C3CN=C4c5ccccc5NC(=O)N4C3)cc2)c1` (stereo not drawn) [Example 10, 1-(3-Methylphenyl)-3-[4-(6-oxo-3,4,6,7-tetrahydro-2H-pyrimido[1,2-c]quinazolin-3-yl)phenyl]urea]: the pIC50 was 6.48 and the “VEGFR2 potency as shown” value is “excellent VEGFR2 potency”.

In the case of `O=C1Nc2ccccc2C2=NCC(c3ccc(Cl)cc3)CN12` (stereo not drawn) [Example 1, 3-(4-Chlorophenyl)-2,3,4,7-tetrahydro-6H-pyrimido[1,2-c]quinazolin-6-one], the pIC50 was less than 5.00.

As to `Cc1ccc(NC(=O)Nc2ccc(C3CN=C4c5ccccc5NC(=O)N4C3)cc2)cc1` (stereo not drawn) [Example 11, 1-(4-Methylphenyl)-3-[4-(6-oxo-3,4,6,7-tetrahydro-2H-pyrimido[1,2-c]quinazolin-3-yl)phenyl]urea], the pIC50 is 5.39.
